Reference: PMC10343299, “S-Ethyl-Isothiocitrullin-Based Dipeptides and 1,2,4-Oxadiazole Pseudo-Dipeptides: Solid Phase Synthesis and Evaluation as NO Synthase Inhibitors” (Molecules, 2023)
Where two headings read alike, the source gives them in different places.

Columns and labels:
[1] = target: T1, rat nNOS (Rattus norvegicus, UniProt P29476); assay: NOS inhibition, oxyhemoglobin (hemoglobin capture) test, recombinant nNOS; assay type: biochemical; details: for IC50: recombinant enzyme, 10 µM arginine, triplicate, NI = <50% inhibition at 100 μM
T1 construct: Full-length recombinant rat nNOS, mouse iNOS, bovine eNOS; made in house; host or cells: Escherichia coli
T1 sequence (P29476 whole entry): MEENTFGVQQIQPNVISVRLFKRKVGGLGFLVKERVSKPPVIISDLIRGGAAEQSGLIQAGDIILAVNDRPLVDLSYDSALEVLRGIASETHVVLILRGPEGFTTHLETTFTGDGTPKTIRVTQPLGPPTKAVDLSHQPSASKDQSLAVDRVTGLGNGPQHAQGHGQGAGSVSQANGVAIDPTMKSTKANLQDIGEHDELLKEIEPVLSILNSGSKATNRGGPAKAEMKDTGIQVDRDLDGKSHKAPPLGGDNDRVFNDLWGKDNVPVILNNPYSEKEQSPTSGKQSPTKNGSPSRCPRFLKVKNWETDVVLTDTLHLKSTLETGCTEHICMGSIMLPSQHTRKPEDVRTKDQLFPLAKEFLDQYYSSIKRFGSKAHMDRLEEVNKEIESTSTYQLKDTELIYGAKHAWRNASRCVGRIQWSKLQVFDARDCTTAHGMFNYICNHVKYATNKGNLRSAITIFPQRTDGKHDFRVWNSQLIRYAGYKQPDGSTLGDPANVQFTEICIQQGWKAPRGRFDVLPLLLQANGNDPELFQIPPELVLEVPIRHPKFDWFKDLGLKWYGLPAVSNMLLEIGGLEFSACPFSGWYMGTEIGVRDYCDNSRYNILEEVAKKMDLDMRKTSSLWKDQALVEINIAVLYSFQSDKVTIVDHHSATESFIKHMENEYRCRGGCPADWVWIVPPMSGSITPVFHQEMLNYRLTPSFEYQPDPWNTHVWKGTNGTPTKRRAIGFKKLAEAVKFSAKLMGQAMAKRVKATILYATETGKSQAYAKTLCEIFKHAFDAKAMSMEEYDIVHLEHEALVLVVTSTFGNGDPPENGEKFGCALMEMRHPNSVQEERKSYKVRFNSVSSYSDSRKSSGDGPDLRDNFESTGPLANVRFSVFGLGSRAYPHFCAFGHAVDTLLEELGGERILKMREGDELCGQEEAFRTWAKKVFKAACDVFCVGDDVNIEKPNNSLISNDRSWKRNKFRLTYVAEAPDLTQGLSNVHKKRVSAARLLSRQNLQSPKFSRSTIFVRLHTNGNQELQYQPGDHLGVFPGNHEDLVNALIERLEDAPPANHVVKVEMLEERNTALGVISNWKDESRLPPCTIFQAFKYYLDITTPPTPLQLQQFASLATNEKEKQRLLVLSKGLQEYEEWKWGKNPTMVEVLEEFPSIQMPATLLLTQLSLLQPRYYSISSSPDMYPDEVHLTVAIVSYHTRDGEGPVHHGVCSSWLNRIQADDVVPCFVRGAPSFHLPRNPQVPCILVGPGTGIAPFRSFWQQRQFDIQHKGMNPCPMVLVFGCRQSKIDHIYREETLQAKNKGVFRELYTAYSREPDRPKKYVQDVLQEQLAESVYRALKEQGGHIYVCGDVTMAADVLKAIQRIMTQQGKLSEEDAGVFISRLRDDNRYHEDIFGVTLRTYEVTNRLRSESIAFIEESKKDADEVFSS
Method: (§1) The inhibitory effects of all compounds against the three recombinant NOSs (rat nNOS, mouse iNOS, and bovine eNOS) were evaluated in 96-well plates using the oxyhemoglobin test. A first screening at 100 and 10 μM was performed, and the IC50 values were measured for compounds showing more than 50% inhibition at 100 μM (Table 1 and Table 2).
(§2) Full-length recombinant rat nNOS, mouse iNOS, bovine eNOS, and the heme domains of rat brain nNOS and mouse iNOS were expressed in Escherichia coli and purified as described previously.
(§3) NOS catalytic activity was measured using the hemoglobin capture assay. The test was performed at 30 °C in 96-well microplates using a final volume of 200 µL. The assay mixture contained 100 µM NADPH, 10 µM BH4, 6 µM HbO2, 100 µM DTT, 5 µM FAD, 5 µM FMN, 10 µM (nNOS and eNOS), or 20 µM (iNOS) arginine, all in a 100 mM Hepes buffer, pH 7.5, and, for constitutive n- and e-NOS, 10 µg/mL calmodulin, and 1 mM CaCl2. The studied compounds were introduced as 2 μL of ×100 concentrated solutions in DMSO, and the control experiments were performed with DMSO or the buffer only. The kinetics of NO production were measured at 401 nm using an Infinite F500 microplate reader (Tecan, Singapore).

[2] = target: T2, mouse iNOS (Mus musculus, UniProt P29477); assay: NOS inhibition, oxyhemoglobin (hemoglobin capture) test, recombinant iNOS; assay type: biochemical; details: recombinant enzyme, 20 µM arginine, triplicate, NI = <50% inhibition at 100 μM; for inhibition at 100 µM: read-out: IC50 (μM) iNOS (Mouse)
T2 construct: Full-length recombinant rat nNOS, mouse iNOS, bovine eNOS; made in house; host or cells: Escherichia coli
T2 sequence (P29477 1-1144): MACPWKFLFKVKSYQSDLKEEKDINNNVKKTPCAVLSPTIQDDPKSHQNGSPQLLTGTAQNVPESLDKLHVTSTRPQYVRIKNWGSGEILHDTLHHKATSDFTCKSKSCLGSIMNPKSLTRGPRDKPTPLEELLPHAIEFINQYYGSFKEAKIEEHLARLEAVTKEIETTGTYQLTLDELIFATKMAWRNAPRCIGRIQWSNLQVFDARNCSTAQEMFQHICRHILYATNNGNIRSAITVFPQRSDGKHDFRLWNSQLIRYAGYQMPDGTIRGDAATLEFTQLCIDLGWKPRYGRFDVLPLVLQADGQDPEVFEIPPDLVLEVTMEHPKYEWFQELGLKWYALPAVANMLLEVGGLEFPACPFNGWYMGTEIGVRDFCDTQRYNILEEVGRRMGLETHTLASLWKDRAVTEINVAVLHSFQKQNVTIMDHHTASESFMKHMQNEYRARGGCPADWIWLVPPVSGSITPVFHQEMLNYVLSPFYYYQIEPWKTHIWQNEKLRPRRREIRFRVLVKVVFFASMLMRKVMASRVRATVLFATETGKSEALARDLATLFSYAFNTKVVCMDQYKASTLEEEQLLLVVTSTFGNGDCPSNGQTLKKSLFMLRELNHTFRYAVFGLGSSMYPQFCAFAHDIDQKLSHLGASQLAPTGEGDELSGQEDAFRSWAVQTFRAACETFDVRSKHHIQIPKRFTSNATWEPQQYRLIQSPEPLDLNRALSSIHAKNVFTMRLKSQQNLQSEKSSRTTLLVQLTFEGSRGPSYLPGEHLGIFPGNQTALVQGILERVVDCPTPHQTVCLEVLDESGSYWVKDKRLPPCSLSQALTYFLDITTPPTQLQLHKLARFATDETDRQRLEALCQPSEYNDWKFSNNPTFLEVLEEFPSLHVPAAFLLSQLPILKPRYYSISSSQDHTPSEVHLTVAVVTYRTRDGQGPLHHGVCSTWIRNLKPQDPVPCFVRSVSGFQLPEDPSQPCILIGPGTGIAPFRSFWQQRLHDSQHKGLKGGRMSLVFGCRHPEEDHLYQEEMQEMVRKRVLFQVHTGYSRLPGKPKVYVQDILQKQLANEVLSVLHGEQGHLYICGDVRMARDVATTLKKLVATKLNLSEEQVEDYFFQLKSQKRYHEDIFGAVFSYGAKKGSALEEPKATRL
Method: as §1, §2, §3

[3] = test system: INS-1 cells (nNOS); assay: Glucose-induced insulin secretion; assay type: cell-based; details: 5.6 mM glucose, no IL-1β, 1 h, compounds 500 µM to 5 mM, L-NAME 5 mM
Method: Indeed, pancreatic β-cells are known to constitutively express the nNOS isoform, which negatively modulates glucose-induced insulin secretion.
The insulin-secreting cell line INS-1 (a gift from Prof. C. Wolheim, Geneva, Switzerland) was cultured in RPMI-1640 supplemented with 10% FCS, 100 units/mL penicillin, 100 µg/mL streptomycin, 2 mM L-glutamine, 10 mM HEPES, 1 mM sodium pyruvate, and […] 2-mercaptoethanol, according to M. Asfari et al.’s method.
The functional effects of compounds were evaluated on INS-1 cells. Cells were preincubated for 1 h at 37 °C in a Krebs–Ringer bicarbonate buffer (108 mM NaCl, 1.19 mM KH2PO4, 4.74 mM KCl, 2.54 mM CaCl2, 1.19 mM MgSO4·7H2O, and 18 mM NaHCO3) containing 2 g/L BSA in the absence of glucose. After removal of the medium, the cells were stimulated for another hour at 37°C in the same buffer in the presence of 5.6 mM glucose and the presence of increasing concentrations of L-NAME or compounds (from 500 µM to 5 mM). At the end of the incubation period, the medium was collected, and the insulin was measured using an insulin high-range assay kit (CisBio, Codolet, France). Data are expressed as means ± SEM of the experiments (indicated in the result part).

[4] = target: T3, bovine eNOS (Bos taurus, UniProt P29473); assay: NOS inhibition, oxyhemoglobin (hemoglobin capture) test, recombinant eNOS; assay type: biochemical; details: recombinant enzyme, 10 µM arginine, triplicate, NI = <50% inhibition at 100 μM; for inhibition at 100 µM: read-out: IC50 (μM) eNOS (Bovine)
T3 construct: Full-length recombinant rat nNOS, mouse iNOS, bovine eNOS; made in house; host or cells: Escherichia coli
T3 sequence (P29473 whole entry): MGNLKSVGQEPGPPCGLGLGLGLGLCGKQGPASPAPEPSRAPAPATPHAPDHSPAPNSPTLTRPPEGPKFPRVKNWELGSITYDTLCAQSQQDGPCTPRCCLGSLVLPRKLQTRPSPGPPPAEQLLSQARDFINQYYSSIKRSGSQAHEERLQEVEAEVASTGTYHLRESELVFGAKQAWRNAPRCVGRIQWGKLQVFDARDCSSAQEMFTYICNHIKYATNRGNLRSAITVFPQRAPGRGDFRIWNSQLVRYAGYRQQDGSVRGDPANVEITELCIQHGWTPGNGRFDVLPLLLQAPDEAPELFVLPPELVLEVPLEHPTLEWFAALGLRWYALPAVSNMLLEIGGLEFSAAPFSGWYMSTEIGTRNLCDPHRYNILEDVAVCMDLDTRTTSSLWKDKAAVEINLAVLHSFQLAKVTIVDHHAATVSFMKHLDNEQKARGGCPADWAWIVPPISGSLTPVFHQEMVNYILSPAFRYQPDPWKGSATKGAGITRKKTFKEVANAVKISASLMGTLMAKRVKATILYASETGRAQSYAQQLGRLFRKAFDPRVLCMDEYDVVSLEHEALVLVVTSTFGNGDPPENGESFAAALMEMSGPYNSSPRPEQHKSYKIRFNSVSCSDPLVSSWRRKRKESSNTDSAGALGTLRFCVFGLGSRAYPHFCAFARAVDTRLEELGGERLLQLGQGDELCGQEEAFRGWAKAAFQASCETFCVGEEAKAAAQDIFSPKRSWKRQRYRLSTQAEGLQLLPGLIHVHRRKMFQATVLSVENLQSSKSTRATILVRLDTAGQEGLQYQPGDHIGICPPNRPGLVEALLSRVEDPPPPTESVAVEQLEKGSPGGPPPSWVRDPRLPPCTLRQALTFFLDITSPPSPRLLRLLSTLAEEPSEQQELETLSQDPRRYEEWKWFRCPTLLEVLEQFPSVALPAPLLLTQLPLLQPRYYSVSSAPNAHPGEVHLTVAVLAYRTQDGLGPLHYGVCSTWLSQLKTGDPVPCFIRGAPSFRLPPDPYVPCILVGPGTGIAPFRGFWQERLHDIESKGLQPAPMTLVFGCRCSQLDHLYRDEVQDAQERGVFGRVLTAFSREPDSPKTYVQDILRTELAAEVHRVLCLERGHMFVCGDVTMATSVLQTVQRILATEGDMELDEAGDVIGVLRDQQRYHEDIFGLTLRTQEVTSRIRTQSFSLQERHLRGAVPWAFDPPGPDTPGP

[5] = test system: RAW 264.7 cells; assay: Cell viability, MTT assay; assay type: cell-based, murine; details: for Effect on cell viability (MTT): up to 100 μM
Method: Cell viability was evaluated in the murine macrophage RAW 264.7 cells using an MTT assay for compounds 18, 21, 26, and 30. This experiment was performed without or with LPS (1 µg/mL), which induces iNOS expression (Figure S1). […] Compound 30 only killed 20% of the cells at 500 μM (Figure S1A). In the presence of LPS (1 µg/mL), cell viability was reduced by 30% due to the inhibition by NO of key enzymes involved in cell metabolism (Figure S1B).
The macrophage cell line RAW 264.7 (a gift from Dr. A. Blangy, Montpellier, France) was cultured in Dulbecco’s Modified Eagle’s Medium (DMEM) supplemented with 10% FCS, 100 units/mL penicillin, 100 µg/mL streptomycin, and 2 mM L-glutamine.
Cellular NO production was measured using the Griess reagent (Sigma-Aldrich), which evaluates the nitrite content in culture media. Cellular toxicity was estimated by the MTT assay (Sigma-Aldrich) in RAW 264.7 cells after the induction (or not) of iNOS by LPS, according to the manufacturer’s recommendations.

[6] = target: T4, oxygenase domain of nNOS (nNOSoxy) (Rattus norvegicus, UniProt P29476); assay: UV-visible difference spectroscopy titration of nNOSoxy; assay type: binding; details: UV/Vis difference spectroscopy, ± SD, three experiments; read-out: Apparent equilibrium constant Ks nNOSoxy
T4 construct: the oxygenase domain of nNOS (nNOSoxy) and iNOS (iNOSoxy); made in house; host or cells: Escherichia coli
T4 sequence (P29476 1-720 limits assumed): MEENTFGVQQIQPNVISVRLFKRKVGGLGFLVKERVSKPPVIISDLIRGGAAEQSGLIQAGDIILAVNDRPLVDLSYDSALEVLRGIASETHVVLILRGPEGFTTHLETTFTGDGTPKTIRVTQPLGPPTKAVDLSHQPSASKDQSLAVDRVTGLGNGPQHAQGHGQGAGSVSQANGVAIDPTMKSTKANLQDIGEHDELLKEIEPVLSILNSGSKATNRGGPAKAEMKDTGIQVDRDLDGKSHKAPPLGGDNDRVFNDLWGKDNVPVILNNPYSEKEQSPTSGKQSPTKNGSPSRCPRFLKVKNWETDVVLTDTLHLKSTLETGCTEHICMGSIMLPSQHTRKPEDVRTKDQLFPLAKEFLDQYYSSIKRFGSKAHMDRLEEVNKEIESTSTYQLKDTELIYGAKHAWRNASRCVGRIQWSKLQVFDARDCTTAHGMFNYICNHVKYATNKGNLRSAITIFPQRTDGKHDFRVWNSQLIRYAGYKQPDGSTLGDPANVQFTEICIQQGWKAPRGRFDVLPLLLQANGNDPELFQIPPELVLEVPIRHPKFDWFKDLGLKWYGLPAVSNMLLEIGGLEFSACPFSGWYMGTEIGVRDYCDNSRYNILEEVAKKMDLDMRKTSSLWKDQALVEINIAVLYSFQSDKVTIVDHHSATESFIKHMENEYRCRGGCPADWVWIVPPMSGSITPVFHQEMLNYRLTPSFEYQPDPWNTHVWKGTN
Text: (§4) We performed UV–visible difference spectroscopy to analyze the interaction mode of some inhibitors with the heme-active site of NOS [54]. We have studied the effects of dipeptide-like compounds 7, 17, 19, 23, and 27 and 1,2,4-oxadiazole 35 on the UV–visible spectra of the oxygenase domain of nNOS (nNOSoxy) and iNOS (iNOSoxy). As expected, when added stepwise to n- and iNOSoxy, all selected compounds elicited different spectra with a trough at ~425 nm and a peak at ~395 nm, similar to the substrate L-arginine. This profile is characteristic of type I interactions, meaning that they are bound in close proximity to the heme prosthetic group and shifted the spin state equilibrium to the pentacoordinated heme–Fe^III state. Double reverse plotting of the differences in absorbance between the peak at ~395 nm and valley at ~425 nm (ΔA395–425 nm) as a function of the concentration of the added compounds allowed calculating apparent binding constants (Ks) (Table 3). The reference inhibitor SEITU [55] tightly bound both NOS isoforms with high affinity but no selectivity. With the exception of the dipeptide-like 27 and the heterocyclic analog 35, which similarly interacted with both proteins, other compounds preferentially bound nNOSoxy over iNOSoxy with apparent affinities close to SEITU for this isoform.
as §2
(§5) This study was performed as previously described.

[7] = target: T5, oxygenase domain of iNOS (iNOSoxy) (Mus musculus, UniProt P29477); assay: UV-visible difference spectroscopy titration of iNOSoxy; assay type: binding; details: UV/Vis difference spectroscopy, ± SD, three experiments; read-out: Apparent equilibrium constant Ks iNOSoxy
T5 construct: the oxygenase domain of nNOS (nNOSoxy) and iNOS (iNOSoxy); made in house; host or cells: Escherichia coli
T5 sequence (P29477 1-498 limits assumed): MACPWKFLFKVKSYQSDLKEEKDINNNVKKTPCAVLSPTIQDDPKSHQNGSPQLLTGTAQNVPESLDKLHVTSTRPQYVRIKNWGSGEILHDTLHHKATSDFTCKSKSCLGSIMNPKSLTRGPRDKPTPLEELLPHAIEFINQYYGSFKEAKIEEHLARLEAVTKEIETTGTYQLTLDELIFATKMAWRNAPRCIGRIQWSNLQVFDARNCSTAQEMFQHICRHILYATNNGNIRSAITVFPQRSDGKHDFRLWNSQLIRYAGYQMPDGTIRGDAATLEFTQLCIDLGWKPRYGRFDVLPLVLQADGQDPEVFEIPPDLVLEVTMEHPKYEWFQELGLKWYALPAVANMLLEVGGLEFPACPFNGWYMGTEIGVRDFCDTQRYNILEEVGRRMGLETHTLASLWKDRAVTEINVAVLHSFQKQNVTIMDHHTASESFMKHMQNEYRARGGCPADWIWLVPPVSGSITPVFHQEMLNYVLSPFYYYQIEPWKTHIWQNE
Text: as §4, §2, §5

Row | SMILES | IC50 ([1]; dipeptide-like series) | IC50 ([2]; dipeptide-like series) | Effect on insulin secretion [3] | inhibition at 100 µM ([4]; dipeptide-like series) | Kd [6] | Kd [7] | other results
1 | CCSC(=N)NCCC[C@H](N)C(=O)N[C@H]1CCCN(Cc2cc([N+](=O)[O-])ccc2O)C1 [Compound 14] | 5.4 µM | 27.8 µM | dose-dependently stimulate glucose insulin secretion with better efficiency than L-NAME |  |  |  | 
2 | CCSC(=N)NCCC[C@H](N)C(=O)N[C@H]1CCCN(Cc2ccc(C(F)(F)F)c(Cl)c2)C1 [Compound 18] | 6 µM |  | dose-dependently stimulate glucose insulin secretion with better efficiency than L-NAME | < 50% |  |  | inhibition at 100 µM ([2]; dipeptide-like series): < 50%; Reversal of LPS-induced reduction of cell viability ([5]; RAW 264.7, LPS 1 µg/mL): none partially reversed the LPS effect; Effect on cell viability (MTT) ([5]; RAW 264.7, absence of LPS): fully toxic
3 | CCSC(=N)NCCC[C@H](N)C(=O)N[C@H]1CCCN(Cc2ccccc2C(F)(F)F)C1 [Compound 19] | 7.7 µM |  |  | < 50% | 5.2 ± 1.1 µM | 96 ± 36 µM | inhibition at 100 µM ([2]; dipeptide-like series): < 50%
4 | CCSC(=N)NCCC[C@H](N)C(=O)N[C@H]1CCCN(Cc2ccc3ccccc3c2)C1 [Compound 22] | 12.7 µM | 11.9 µM | dose-dependently stimulate glucose insulin secretion with better efficiency than L-NAME | < 50% |  |  | 
5 | CCSC(=N)NCCC[C@H](N)C(=O)N[C@H]1CCCN(Cc2ccc(-c3ccccc3)cc2)C1 [Compound 23] | 5.4 µM | 46.9 µM |  | < 50% | 11.4 ± 3.8 µM | 92.5 ± 8.8 µM | 
6 | CCSC(=N)NCCC[C@H](N)c1nc(CCN(Cc2ccccc2)Cc2ccccc2)no1 [Compound 30] |  |  |  |  |  |  | IC50 ([1]; 1,2,4-oxadiazole series): 1.6 µM; IC50 ([2]; 1,2,4-oxadiazole series): 1.3 µM; IC50 ([4]; 1,2,4-oxadiazole series): 99.6 µM; Cells killed ([5]; RAW 264.7, absence of LPS, 500 μM): 20%; Effect on cell viability (MTT) ([5]; RAW 264.7, absence of LPS): did not modify cell viability
7 | CCSC(=N)NCCC[C@H](N)c1nc(CCN(Cc2ccc3ccccc3c2)Cc2ccc3ccccc3c2)no1 [Compound 35] |  |  |  |  | 47.1 ± 13 µM | 42.4 ± 8.7 µM | IC50 ([1]; 1,2,4-oxadiazole series): 0.4 µM; Selectivity for nNOS against eNOS ([1]; from IC50 values): > 250 fold; Selectivity for nNOS against iNOS ([1]; from IC50 values): approximately 30 fold; IC50 ([2]; 1,2,4-oxadiazole series): 11.7 µM; inhibition at 100 µM ([4]; 1,2,4-oxadiazole series): < 50%
8 | COC(=O)[C@@H](N)CCCNC(N)=N[N+](=O)[O-] [L-NAME, reference compound] |  |  | potentiated insulin release |  |  |  | 
